17 compounds from patent US20090023735A1, “Sulphonamide Derivatives” (priority 2005, published 2009) can be followed below.

Assay [1] deals with T1, α2β1 integrin (Homo sapiens, UniProt P17301).
T1 construct: expressed in transfected cells; host or cells: CHO cell clone
T1 sequence (P17301 30-1181): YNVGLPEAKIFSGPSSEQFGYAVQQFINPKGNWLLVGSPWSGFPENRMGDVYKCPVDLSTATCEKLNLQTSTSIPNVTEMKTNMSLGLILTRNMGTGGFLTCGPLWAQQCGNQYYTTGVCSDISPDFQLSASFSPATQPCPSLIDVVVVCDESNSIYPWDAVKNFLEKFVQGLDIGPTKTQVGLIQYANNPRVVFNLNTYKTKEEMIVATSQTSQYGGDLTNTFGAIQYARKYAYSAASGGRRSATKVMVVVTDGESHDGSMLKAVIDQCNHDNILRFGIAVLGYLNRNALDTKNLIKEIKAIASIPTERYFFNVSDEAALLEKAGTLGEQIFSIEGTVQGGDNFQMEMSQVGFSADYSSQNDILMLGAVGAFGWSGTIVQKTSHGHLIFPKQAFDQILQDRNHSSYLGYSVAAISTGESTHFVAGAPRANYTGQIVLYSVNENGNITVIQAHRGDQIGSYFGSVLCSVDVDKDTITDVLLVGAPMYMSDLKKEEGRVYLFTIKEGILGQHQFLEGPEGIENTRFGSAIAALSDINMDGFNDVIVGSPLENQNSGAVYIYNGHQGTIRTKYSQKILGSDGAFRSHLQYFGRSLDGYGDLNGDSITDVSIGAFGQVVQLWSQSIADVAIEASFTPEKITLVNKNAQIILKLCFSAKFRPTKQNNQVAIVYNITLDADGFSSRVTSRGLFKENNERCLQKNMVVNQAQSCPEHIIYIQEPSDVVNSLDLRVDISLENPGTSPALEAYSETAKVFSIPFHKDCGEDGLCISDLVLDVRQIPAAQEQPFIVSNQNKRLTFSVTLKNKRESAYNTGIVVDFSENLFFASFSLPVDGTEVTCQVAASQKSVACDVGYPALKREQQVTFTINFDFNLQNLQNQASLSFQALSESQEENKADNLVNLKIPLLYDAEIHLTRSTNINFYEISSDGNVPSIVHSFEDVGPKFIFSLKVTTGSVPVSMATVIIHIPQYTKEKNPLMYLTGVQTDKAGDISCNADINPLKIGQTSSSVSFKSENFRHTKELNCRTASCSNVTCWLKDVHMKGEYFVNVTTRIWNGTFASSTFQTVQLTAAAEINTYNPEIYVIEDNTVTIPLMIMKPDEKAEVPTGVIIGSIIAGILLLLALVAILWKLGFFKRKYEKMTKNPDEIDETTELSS
Nature of the assay: CHO-α2β1 cell adhesion on type I collagen. Type of assay: cell-based. The note with it: CHO cells expressing wild type α2 integrin on collagen type I coated wells, 2 h. As for the experimental part:
Chinese Hamster Ovary (CHO) cell clone expressing wild type α2 integrin was used in cell adhesion assay. Cells were suspended in serum free medium containing 0.1 mg/ml cycloheximide (Sigma) and the compounds were preincubated with the cells prior to transfer to the wells. Cells (150000/well) were allowed to attach on collagen type I coated wells (in the presence and absence of inhibitor compounds) for 2 h at +37° C. and after that non-adherent cells were removed. Fresh serum free medium was added and the living cells were detected using a cell viability kit (Roche) according to the manufacturer's protocol.

The test system of assay [2] is Prostate cancer cells (PC-3). Nature of the assay: Cell invasion assay: invasion of PC-3 cells through Matrigel. The note with it: Homo sapiens, PC-3, 72 h, read-out: EC50 in cell invasion (μM).
Protocol: Prostate cancer cells (PC-3) expressing α2β1 endogenously were used to test the in vitro anticancer potential of the inhibitors of the present invention.
Inserts were stored at −20° C. Before the experiments inserts were allowed to adjust to the room temperature. 500 μl of serum free media (Ham's F12K medium, 2 mM L-glutamine, 1.5 g/l sodium bicarbonate) was added into the inserts and allowed to rehydrate at 37° C. in cell incubator for two hours. The remaining media was aspirated. PC-3 cells were detached, pelleted and suspended into serum free media (50000 cells/500 μl). 300 μl of cell suspension was added into the insert in the absence (control) or presence of the inhibitor according to the present invention. Inserts were placed on the 24-well plates; each well containing 700 μl of cell culture media with 3% of fetal bovine serum as chemo-attractant. Cells were allowed to invade for 72 hours at 37° C. in cell incubator. Inserts were washed with 700 μl PBS, and fixed with 4% paraformaldehyde for 10 minutes. Paraformaldehyde was aspirated and cells were washed with 700 μl of PBS and inserts were stained by incubation with hematoxylin for 1 minute. The stain was removed by washing the inserts with 700 μl of PBS. Inserts were allowed to dry. Fixed invaded cells were calculated under the microscope. Invasion % was calculated as a comparison to the control.
Assay [3] has as its system platelet aggregation in whole blood. The note with it: PFA-100, collagen plus Epinephrin membrane, compared to control (DMSO), FIG. 1.
Protocol: The PFA-100 is a high shear-inducing device that simulates primary haemostasis after injury of a small vessel. The system comprises a test-cartridge containing a biologically active membrane coated with collagen plus Epinephrin. An anticoaculated whole blood sample was run through a capillary under a constant vacuum. […] The time required to obtain full occlusion of the aperture was designated as the “closure time”. Each compound was added to the whole blood sample and the closure time was measured with PFA-100.
Blood was collected from a donor via venipuncture into evacuated blood collection tubes containing 3.2% buffered sodium sitrate as anticoagulant. Blood was aliquoted into 15 mL tubes and treated with either inhibitory compounds or controls (DMSO). Samples were kept at room temperature with rotation for 10 minutes and after that the closure time of the blood was measured.
Acquisitions resulting in a closure time exceeding the range of measurement of the instrument (>300 seconds) were assigned a value of 300 seconds. Mean and standard deviations were calculated for each treatment. Student's t-test was applied to the resultant data.

Where a name gives a salt, the structure may show the parent alone.

In turn, `COCCN(c1ccc(N(C)C)cc1)S(=O)(=O)c1cccc(-c2ccc(F)cc2)c1` [Compound 353, 4′-fluoro-biphenyl-3-sulfonic acid (4-dimethylamino-phenyl)-(2-methoxy-ethyl)-amide] showed an inhibition at 50 µM in assay [1] of 11%.
Compound `CN(C)CCN(c1ccc(N(C)C)cc1)S(=O)(=O)c1cccc(-c2ccc(F)cc2)c1` [Compound 354, 4′-fluoro-biphenyl-3-sulfonic acid (2-dimethylamino-ethyl)-(4-dimethylamino-phenyl)-amide] gave an inhibition at 50 µM in assay [1] of 78%.
Still for that read-out and setting: the figure for `CN(C)c1ccc(N(CCN2CCOCC2)S(=O)(=O)c2cccc(-c3ccc(F)cc3)c2)cc1` [Compound 355, 4′-fluoro-biphenyl-3-sulfonic acid (4-dimethylamino-phenyl)-(2-morpholin-4-yl-ethyl)-amide] is 18%; for `CN(C)c1ccc(N(CCn2ccnc2)S(=O)(=O)c2cccc(-c3ccc(F)cc3)c2)cc1` [Compound 358, 4′-fluoro-biphenyl-3-sulfonic acid (4-dimethylamino-phenyl)-(2-imidazol-1-yl-ethyl)-amide] it is 71%; for `CN(C)c1ccc(N(CCO)S(=O)(=O)c2cccc(-c3ccc(F)cc3)c2)cc1` [Compound 359, 4′-fluoro-biphenyl-3-sulfonic acid (4-dimethylamino-phenyl)-(2-hydroxy-ethyl)-amide] it is 42%.
On the same count and under the same terms, the same measure for `O=S(=O)(Nc1ccc(-c2cnco2)cc1)c1cccc(-c2ccc(F)cc2)c1` [Compound 378, 4′-fluoro-biphenyl-3-sulfonic acid (4-(1,3-oxazol-5-yl)-phenyl)-amide]: 22%.
On the same count and under the same terms, the figure for `CC(=O)c1ccc(NS(=O)(=O)c2cccc(-c3ccc(F)cc3)c2)cc1` [Compound 383, 4′-fluoro-biphenyl-3-sulfonic acid (4-acetyl-phenyl)-amide] is 26%; for `O=C(c1ccccc1)c1ccc(NS(=O)(=O)c2cccc(-c3ccc(F)cc3)c2)cc1` [Compound 384, 4′-fluoro-biphenyl-3-sulfonic acid (4-benzoyl-phenyl)-amide] it is 65%; for `O=S(=O)(Nc1cccc(-c2ccc(F)cc2)c1)c1ccc(Cl)cc1Cl` [Compound 403, 2,4-cichlorophenylsulfonic acid (3-(4-fluorophenyl)phenyl)-amide] it is 56%.
Take `CN(c1ccc(NC(=O)N2CCNC2=O)cc1)S(=O)(=O)c1cccc(-c2ccc(F)cc2)c1` [Compound 430, 2-oxo-imidazolidine-1-carboxylic acid {4-[(4′-fluoro-bi-phenyl-3-sulfonyl)-methyl-amino]-phenyl)-amide]: at 50 µM the inhibition in assay [1] was 53%. In addition, the EC50 in assay [2] is 12 µM.
The compound `O=C(c1ccccc1)c1cccc(NS(=O)(=O)c2cccc(-c3ccc(F)cc3)c2)c1` [Compound 432, 4′-fluoro-biphenyl-3-sulfonic acid (3-benzoyl-phenyl)-amide] yielded an inhibition at 50 µM in assay [1] of 72%. Moreover, in assay [2], the EC50 came out at 1 µM.
The compound `O=C(c1ccccc1)c1ccc(NS(=O)(=O)c2cccc(-c3ccc(F)cc3)c2)cc1` [Compound 434, 4′-fluoro-biphenyl-3-sulfonic acid (4-benzoyl-phenyl)-amide sodium salt] registered an inhibition at 50 µM in assay [1] (CHO) of 78%. Besides, in assay [3], the “closure time of the blood” value was “increase the closure time”.
For `O=[N+]([O-])c1ccc(NS(=O)(=O)c2cccc(-c3ccc(F)cc3)c2)cc1` [Compound 440, 4′-fluoro-biphenyl-3-sulfonic acid (4-nitro-phenyl)-amide], in assay [1], the inhibition at 50 µM came to 59%. In addition, in assay [2], the concentration giving a half-maximal response (EC50) worked out at 8.3 µM.
Turning to `Cn1cccc1C(=O)Nc1ccc(NS(=O)(=O)c2cccc(-c3ccc(F)cc3)c2)cc1` [Compound 442, 1-methyl-1H-pyrrole-2-carboxylic acid [4-(4′-fluoro-bi-phenyl-3-sulfonylamino)-phenyl]-amide], the inhibition at 50 µM in assay [1] turned out to be 21%.
In the case of `N#Cc1ccc(NS(=O)(=O)c2cccc(-c3ccc(F)cc3)c2)cc1` [Compound 448, 4′-fluoro-biphenyl-3-sulfonic acid (4-cyano-phenyl)-amide], 50 µM produced 58% inhibition in assay [1]. For the same compound, the EC50 in assay [2] stood at 27 µM.
In the case of `Cc1cc(NC(=O)c2ccc(NS(=O)(=O)c3cccc(-c4ccc(F)cc4)c3)cc2)no1` [Compound 456, 4-(4′-fluoro-biphenyl-3-sulfonylamino)-N-(5-methyl-isoxazol-3-yl)-benzamide], testing at 50 µM in assay [1] gave an inhibition of 13%.
Still for that read-out and setting: the figure for `O=C(c1ccc(F)cc1)c1ccc(NS(=O)(=O)c2cccc(-c3ccc(F)cc3)c2)cc1` [Compound 458, 4′-fluoro-biphenyl-3-sulfonic acid [4-((4-fluorophenyl)-4-carbonyl)-phenyl]-amide] is 66%.
